Laboratory results as given in US20230226062A1, “HETEROCYCLIC COMPOUNDS AS IMMUNOMODULATORS” (Incyte Corporation, priority 2016, published 2023).

Target: T1, PD-1/PD-L1 (Homo sapiens, UniProt Q9NZQ7)
T1 construct: Recombinant human PD-L1 protein (19-238) with a His-tag at the C-terminus; purchased AcroBiosystems PD1-H5229 (PD-L1); PD1-H5257 (PD-1)
Assay: PD-1/PD-L1 Homogeneous Time-Resolved Fluorescence (HTRF) binding assay
Conditions: recombinant human PD-L1 (19-238)-His 10 nM, human PD-1 (25-167)-Fc 3 nM, 25° C., PBS pH 7.4
Procedure: Example A. PD-1/PD-L1 Homogeneous Time-Resolved Fluorescence (HTRF) Binding Assay
The assays were conducted in a standard black 384-well polystyrene plate with a final volume of 20 μL. Inhibitors were first serially diluted in DMSO and then added to the plate wells before the addition of other reaction components. The final concentration of DMSO in the assay was 1%. The assays were carried out at 25° C. in the PBS buffer (pH 7.4) with 0.05% Tween-20 and 0.1% BSA. Recombinant human PD-L1 protein (19-238) with a His-tag at the C-terminus was purchased from AcroBiosystems (PD1-H5229). Recombinant human PD-1 protein (25-167) with Fc tag at the C-terminus was also purchased from AcroBiosystems (PD1-H5257). PD-L1 and PD-1 proteins were diluted in the assay buffer and 10 μL was added to the plate well. Plates were centrifuged and proteins were preincubated with inhibitors for 40 minutes. The incubation was followed by the addition of 10 μL of HTRF detection buffer supplemented with Europium cryptate-labeled anti-human IgG (PerkinElmer-AD0212) specific for Fc and anti-His antibody conjugated to SureLight®-Allophycocyanin (APC, PerkinElmer-AD0059H). After centrifugation, the plate was incubated at 25° C. for 60 min. before reading on a PHERAstar FS plate reader (665 nm/620 nm ratio). Final concentrations in the assay were—3 nM PD1, 10 nM PD-L1, 1 nM europium anti-human IgG and 20 nM anti-His-Allophycocyanin. IC50 determination was performed by fitting the curve of percent control activity versus the log of the inhibitor concentration using the GraphPad Prism 5.0 software.

T1 sequence (Q9NZQ7 19-238): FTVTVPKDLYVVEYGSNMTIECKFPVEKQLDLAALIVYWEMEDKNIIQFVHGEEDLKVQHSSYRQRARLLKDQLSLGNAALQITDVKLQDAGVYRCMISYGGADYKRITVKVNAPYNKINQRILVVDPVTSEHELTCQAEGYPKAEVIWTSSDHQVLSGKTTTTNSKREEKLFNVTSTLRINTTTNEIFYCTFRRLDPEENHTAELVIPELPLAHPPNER

IC50 [nM] | SMILES
10 to 100 | COc1cccc(-c2cccc(Nc3nccn4c(CNCCO)cnc34)c2C)c1F [Example 9, 2-(((8-((2′-fluoro-3′-methoxy-2-methyl-[1,1′-biphenyl]-3-yl)amino)imidazo[1,2-a]pyrazin-3-yl)methyl)amino)ethan-1-ol]
100 to 1000 | Cc1c(Nc2nsc3nccnc23)cccc1-c1ccccc1 [Example 25, N-(2-methylbiphenyl-3-yl)isothiazolo[4,5-b]pyrazin-3-amine]
